This is an account of results in patent US20230398153A1, “A METHOD FOR EFFICIENT MICROGLIA REPLACEMENT” (The Board of Trustees of the Leland Stanford Junior …, priority 2020, published 2023).

For data set [1], the system named is brain myeloid cells (CD45+CD11b+). Briefly: HSCT followed by PLX5622 treatment: donor (GFP+) myeloid chimerism in the brain by flow cytometry. The data set is classed as in vivo, mouse. The source says: Microglia depletion after HSCT results in near complete replacement of microglia with bone marrow-derived cells throughout the entire brain. We next tested whether CSF1R inhibition after HSCT enhanced microglia replacement. We therefore performed conventional HSCT with GFP-labeled fresh bone marrow cells. After 28 days, we treated the experimental group with PLX5622 for 10 days and the control group received no drug (FIG. 2A). After another 10 days (7 weeks post transplant) we analyzed the brains and consistently found over 90% of all brain myeloid cells to be GFP^+ by flow cytometry (FIG. 2B, C). […] The transplanted CDMCs had homogeneously populated the entire brain (FIG. 2E). Importantly, this high chimerism was stable and CDMCs remained incorporated for at least 6 months after transplantation (FIG. 2C, 9E).
PLX5622 was provided by Plexxikon Inc. and incorporated to AIN-76A standard chow by Research Diets Inc. at 1200 mg/kg.
Unless otherwise noted, we used female mice at age of 8-12 weeks for both recipients and donors. WT mice were pre-treated with PLX5622 diet between day-21 and day −1 (21 days) and/or busulfan between day-6 and −2 day (5 days). For busulfan pre-treatment, mice received five intraperitoneal (IP) injections of busulfan (sigma, B1 170000) at 25 mg/kg body weight per day. On day 0, bone marrow cells (BMCs) were isolated from tibias and femurs of UBC-GFP mice. Isolated BMCs were resuspended in 1×red blood cell lysis buffer (e-bioscience, 00-4300-54) and incubated for 20 min at room temperature. BMCs were passed through 70 μm cell strainer, washed by applying 10 ml of ice cold PBS and then resuspended in fresh PBS. BMCs (5×10^6) in 200 ul PBS were injected into the retro-orbital sinus of the pre-conditioned recipients. On day 28, the recipient mice were treated with PLX5622 or control diet for 10 days. For tamoxifen injection, tamoxifen (sigma T5648) in corn oil (sigma, C8267) was provided by IP injection to the recipient mice at 200 mg/kg at the indicated time points after bone marrow transplantation.
Microglia cells were isolated from adult mouse brains as described (Shibuya et al., 2014). Anesthetized mice (100 mg/kg of ketamin and 10 mg/kg of xylazine, i.p.) were perfused through the left ventricle with ice-cold PBS without Ca^2+ and Mg^2+. Brains were removed and cut into two pieces along the midline. One hemisphere was immediately transferred to 4% paraformaldehyde for fixation. The other hemi-sphere was minced with a surgical knife, and then transferred to ice-cold HBSS without Ca^2+ and Mg^2+. Minced hemi-brains were centrifuged at 300×g for 2 min at room temperature and then enzymatically digested at 37° C. for 35 min by using Neural Tissue Dissociation Kit (Miltenyi Biotec, 130-092-628) according to the manufacturer's protocol. The cell suspension was passed through a 70 µm cell strainer and washed by applying 10 ml of HBSS with Ca^2+ and Mg^2+ to the strainer. The cell suspension was centrifuged at 300×g for 10 min at room temperature, re-suspended in 30% Percoll (GE Healthcare Lifesciences, 17089102), and then centrifuged at 700×g for 10 min at 4° C. The supernatant containing the myelin was removed and the pellet was washed with 10 ml of HBSS with Ca^2+ and Mg^2+. The resulting pellet was resuspended in FACS buffer and subjected to antibody staining for flow cytometry. Microglia/CDMCs were identified using anti-CD45 and anti-CD11b antibodies.
The following FACS antibodies were used in this study. CD11b (clone M1/70, BioLegend), CD45 (Clone 30-F11, BD biosciences), F4/80 (clone BM8, biolegend), CCR2 (clone SA203G11, biolegend), gp49A/B (clone H1.1), CD115 (CSF1R) (clone AFS98, biolegend), CD117 (c-kit) (clone 2B8, BD biosciences), sca-1 (clone D7, biolegend), cd127 (IL7Ra)(clone SB/199, biolegend), CD16/CD32 (FcR Ill/II) (clone 93, biolegend), CX3CR1 (clone K0124E1, biolegend), cd135 (Flk-2,)(clone A2F10) CD34 (clone561, biolegend), and Ly6C (clone RB6-8C5). […]
For orientation: In flow cytometry, cells or beads pass a laser one at a time.

For data set [2], the system named is peripheral blood cell populations. The experiment in a line: Effect of PLX5622 after HSCT on peripheral blood cell populations. The settings on record: PLX5622 10 days after HSCT, D38. Type of data set: in vivo. Here is the method:
FIG. 9. […] (A) Flow cytometry gating for analysis of donor chimerism in PB myeloid cells. (B) Myeloid chimerism in PB was analyzed by flow cytometry at the indicated time point (Horizontal bars represent median values. n=5-6/time point, ns: not significant, Student's t-test). (C) The effect of PLX5622 on PB myeloid cells was analyzed by flow cytometry. Flow cytometry gating for analysis of the indicated cell populations on D38. (D) Quantification of number of the indicated cell populations by flow cytometry (Mean±SEM, n=6/group, ns: not significant, Student's t-test). (E) Representative images of GFP+ and Iba-1+ cells, and DAPI in the cortex of recipient mice at the indicated time points. Scale bars:[…].
The following FACS antibodies were used in this study. […]
Approximately 50 ul of peripheral blood per mouse was collected from the facial vein into a 1.5 ml tubes containing 20ul of 0.5M EDTA. […] The resulting cells were analyzed by flow cytometry.

As to `COc1ncc(F)cc1CNc1ccc(Cc2c[nH]c3ncc(C)cc23)c(F)n1` [PLX5622], the “engraftment of CDMCs into the brain” value in data set [1] (PLX5622 between days 14 and 24 after HSCT, flow cytometry on D34) is “comparably robust and efficient engraftment”. In addition, in data set [1] (PLX5622 pre-treatment before HSCT (busulfan+PLX5622 group), 14 days post IV injection), the “fraction of GFP+ cells among brain myeloid cells” value was “only a marginal increase”. Besides, in data set [1] (PLX5622 treatment following HSCT, cortex, d83), the “expression of microglia-specific marker TMEM119 in CDMCs” value is on record as “induced expression of the microglia-specific marker TMEM119 in CDMCs”. Further, the “duration CDMCs remained incorporated (stable high chimerism)” value in data set [1] (after transplantation, PLX5622 10 days from D28) was “at least 6 months”. Also, the “brain myeloid cells GFP+ by flow cytometry” value in data set [1] (busulfan HSCT, PLX5622 10 days from D28, analysed after another 10 days (7 weeks post transplant)) is given as “over 90%”. Further, in data set [1] (flow cytometry during treatment after HSCT), the “CDMCs (GFP+) and microglia (GFP-) numbers during PLX5622 treatment” value was “both cell populations were diminished to similar degrees”. Also, the “composition of peripheral blood cell populations” value in data set [2] is listed as “largely unaffected”.
